# Columns and labels:
# Plasmodium falciparum [1] = assay: Antimalarial activity against chloroquine-sensitive Plasmodium falciparum 3D7; type: functional; details: read-out: ED50 (the source's name)
# Plasmodium falciparum [2] = assay: Antimalarial activity against chloroquine-resistant Plasmodium falciparum K1; type: functional; details: read-out: ED50 (the source's name)
smiles,measurement,setting,value
CCN(CC)CCCC(C)Nc1ccnc2cc(Cl)ccc12 (configuration not stated) [CHLOROQUINE],EC50,Plasmodium falciparum [1],8.52 nM
same,EC50,Plasmodium falciparum [2],290 nM
